# Results published in US11235001B2, “RUNX inhibitor” (KYOTO UNIVERSITY, priority 2016, dated 2022).
# pIC50: −log10 of the molar value.
# Assays:
# UF1 (p53Null) = assay: cells; settings: Homo sapiens
# NB4 (p53MT) = assay: cells; settings: Homo sapiens
# [1] = tested on: BCL11A, TRIM24, p53, p21, BAX, PUMA and MDM2; assay: qRT-PCR of p53 suppressors and p53 target genes in MV4-11 cells; format: cell-based, human; settings: 1 μM, 6 hours
# Procedure: A total RNA was isolated with RNeasy mini kit (Qiagen) and reverse transcribed with Reverse script kit (TOYOBO) to generate cDNA. Real-time quantitative polymerase chain reaction (PCR) was carried out with 7500 Real-Time PCR System (Applied Biosystems) according to the manufacturer's instructions. Results were normalized to GAPDH levels. Relative expression levels were calculated using the 2-ΔΔCt method.
# IL3, CSF2 and CSF2RB = assay: qRT-PCR of RUNX1 target genes in MV4-11 cells; format: cell-based, human; settings: 5 μM, 6 hours
# [2] = tested on: RUNX family (RUNX1, RUNX2 and RUNX3); assay: Gene expression microarray in MV4-11 cells vs RUNX family knockdown; format: cell-based, human; settings: 1 μM, 6 hours, top 500 up- and down-regulated genes
# SU-Ph2 cells = assay: Cell growth inhibition assay, SU-Ph2 cells; format: cell-based, human; settings: SU-Ph2, 48 hours
# SU/SR cells [3] = settings: read-out: IC50 value; SU/SR (imatinib-resistant), 48 hours
# [4] = tested on: BCL11A, TRIM24, p21, BAX, PUMA, MDM2, PARP, cleaved caspase-3; assay: Immunoblotting of p53 pathway and apoptosis proteins in MV4-11 cells; format: cell-based, human; settings: 1 μM, 24 hours
# Procedure: Cells were washed twice with ice cold phosphate-buffered saline (PBS) and harvested in protein lysis buffer [50 mM Tris (pH 7.4), 100 mM NaCl, 0.1 mM EDTA, 1 mM phenylmethylsulfonyl fluoride, 1 mM β-glycerophosphate, 2.5 mM sodium pyrophosphate, 1 mM Na3VO4, lx protease inhibitor (Roche) and PhosSTOP (Roche)]. Whole cell extracts were separated by SDS-polyacrylamide gel electrophoresis (SDS-PAGE) and electrotransferred onto polyvinylidene difluoride membranes. Membranes were probed with the following antibodies: anti-Ctip1 antibody (Abcam, ab19487), anti-TRIM24 antibody (Bethyl Laboratories, Inc), anti-RUNX1 antibody (A-2), anti-GAPDH (FL-335), anti-p21 (C-19), anti-Bax (N-20) antibodies (Santa Cruz Biotechnology, Inc.), anti-RUNX2, anti-RUNX3, anti-p53 antibodies (Cell Signaling Technology), anti-CBFβ antibody (FL-182, Santa Cruz Biotechnology, Inc.), anti-cleaved caspase-3 antibody (5A1E, Cell Signaling Technology), anti-PARP antibody (46D11, Cell Signaling Technology). For secondary antibodies, anti-rabbit IgG, or anti-mosue IgG HRP-linked antibodies (Cell Signaling Technology) were used. Blots were detected using Chemi-Lumi One Super (nacalai tesque, Inc.) and ChemiDoc™ XRS+ Imager (Bio-Rad Laboratories, Inc.), as recommended by the manufacturers. Protein levels were quantified with Image Lab Software (Bio-Rad Laboratories, Inc.).
# Briefly, MV4-11 cells were treated with 1 μM Chb-M′ or Chb-50 for 24 hours. The treated cells were dissolved in the protein lysis buffer. Whole cell extracts were resolved by SDS-polyacrylamide gel electrophoresis (SDS-PAGE) and transferred onto polyvinylidene difluoride membranes. The membranes were probed with each antibody. Blots were detected and quantified. As a control, the cells treated with DMSO were used.
# [5] = tested on: AML cell lines expressing functional p53 (MV4-11, OCI-AML2, OCI-AML3 and MOLM-13); assay: Growth inhibition assay of AML cell lines expressing functional p53; format: cell-based, human; settings: 48 hours; at between nanomolar to low micromolar levels
# Procedure: Growth inhibition of some AML cell lines expressing functional p53 (MV4-11, OCI-AML2, OCI-AML3 and MOLM-13) by PI polyamide conjugates at different concentrations was tested. Briefly, the cells were placed at a density of 1×10^5 cells/mL. Different concentrations of a PI polyamide conjugate (Chb-M′ or Chb-50) were added to media, and the cells were incubated for 48 hours (n=3). The number of viable cells when the PI polyamide conjugate was not added was used as a control (DMSO control). Cell viability was assessed by counting the viable cells with Cell Count Reagent SF (Nacalai tesque, Inc.) and Infinite (registered trademark) 200 PRO multimode reader (TECAN) according to the manufacturer's instructions.
# [6] = tested on: p53-mutated colon cancer cell line HT29; settings: HT29, 72 hours
# LNCaP cells = assay: cells; settings: Homo sapiens, 48 h, read-out: IC50 (μM) in LNCaP cells
# [7] = tested on: medulloblastoma cell line DAOY; assay: cells; settings: Homo sapiens, 48 h
# DU-145 cells = assay: cells; settings: Homo sapiens, DU-145, 48 h, read-out: IC50 (μM) in DU-145 cells
# HL60 = assay: cells; settings: Homo sapiens, HL-60, 48 h, read-out: IC50 (μM) of PRIMA-1 single agent administration
# KG1a = assay: cells; settings: Homo sapiens, KG-1a, 48 h, read-out: IC50 (μM) of PRIMA-1 single agent administration
# THP-1 = assay: cells; settings: Homo sapiens, THP-1, 48 h, read-out: IC50 (μM) of PRIMA-1 single agent administration
# MV4-11NR = assay: cells; settings: Homo sapiens, 48 h, read-out: IC50 (μM) of PRIMA-1 single agent administration
# Kasumi-1 = assay: cells; settings: Homo sapiens, Kasumi 1, 48 h, read-out: IC50 (μM) of PRIMA-1 single agent administration
# MV4-11 cells = assay: Xenograft AML mouse model (MV4-11); format: in vivo; settings: NOG mice with MV4-11, day 14
# A549 cells = assay: Xenograft lung cancer mouse model (A549); format: in vivo
# SU/SR cells [8] = assay: Xenograft ALL mouse model (SU/SR); format: in vivo; settings: NOG mice with SU/SR
structure (smiles),measurement,setting,value
"CC1=C(/C=C/C(C)=C/C=C/C(C)=C/C(=O)O)C(C)(C)CCC1 [ATRA, all-trans-retinoic acid]",pIC50,UF1 (p53Null); 48 h,4.91
same,pIC50,UF1 (p53Null); 72 h,4.99
same,pIC50,NB4 (p53MT); 48 h,4.12
same,pIC50,NB4 (p53MT); 72 h,4.22
CN(C)CCCNC(=O)c1nc(NC(=O)c2nc(NC(=O)c3cc(NC(=O)c4nc(NC(=O)CCCNC(=O)c5cc(NC(=O)c6nc(NC(=O)c7cc(NC(=O)c8cc(NC(=O)CCNC(=O)CCCc9ccc(N(CCCl)CCCl)cc9)cn8C)cn7C)cn6C)cn5C)cn4C)cn3C)cn2C)cn1C [Chb-50],Gene expressions of p53 suppressors BCL11A and TRIM24,[1],down-regulated
same,mRNA expression level of p53,[1],unchanged
same,mRNA expression levels of p21 and PUMA,[1],increased
same,"Expressions of RUNX1 target genes (IL3, CSF2, and CSF2RB), mRNA","IL3, CSF2 and CSF2RB",effectively inhibited
same,Gene expression pattern vs cells with all RUNX family members knockdown,[2],significantly correlated
same,IC50 compared with that of imatinib,SU-Ph2 cells,lower IC50 values
same,pIC50,SU/SR cells [3],5.85
same,Cleaved form of PARP and cleaved caspase-3 (apoptosis),[4],emergence
same,"Protein expression levels of p53 and downstream proteins (p21, BAX)",[4],increased
same,Protein expression levels of suppressors of p53 (BCL11A and TRIM24),[4],reduced
same,Growth inhibition of AML cells,[5],highly effective
O=C(O)CCCc1ccc(N(CCCl)CCCl)cc1 [Chlorambucil],IC50 (μM),[6],Not measurable
same,IC50,LNCaP cells,37.6 µM
same,pIC50,[7],4.74
same,IC50,DU-145 cells,38.1 µM
"O=C1C2CCN(CC2)C1(CO)CO [PRIMA-1, 2,2-bis(hydroxymethyl)-1-azabicyclo[2.2.2]octan-3-one]",IC50,HL60,5.74 µM
same,IC50,KG1a,> 100 µM
same,IC50,THP-1,6 µM
same,IC50,MV4-11NR,5.5 µM
same,IC50,Kasumi-1,7.03 µM
"Nc1ccn([C@@H]2O[C@H](CO)[C@@H](O)[C@@H]2O)c(=O)n1 [cytarabine, reference compound]",H&E staining of bone marrow,MV4-11 cells,little change
same,hCD45 staining of bone marrow (human leukemia cells),MV4-11 cells,filled with leukemia cells
"COc1cc2ncnc(Nc3ccc(F)c(Cl)c3)c2cc1OCCCN1CCOCC1 [gefitinib, reference compound]",Effect on the lung cancer model,A549 cells; A549 xenograft,did not show effect
same,H&E staining of lung tissue (lung cancer cells in pulmonary alveoli),A549 cells; day 14 after transplantation,densely filled with lung cancer cells
same,"Brightness of luciferase (IVIS), lung","A549 cells; day 14 after transplantation, after 2 administrations",increased
same,"Brightness of luciferase (IVIS), lung","A549 cells; day 21 after transplantation, after total 4 administrations",increased
"Cc1ccc(NC(=O)c2ccc(CN3CCN(C)CC3)cc2)cc1Nc1nccc(-c2cccnc2)n1 [imatinib, reference compound]",H&E staining of bone marrow,SU/SR cells [8],little change
same,Invasion of liver by transplanted PhALL cells (hCD45 staining),SU/SR cells [8],not inhibited
same,"Invasion of spleen by transplanted PhALL cells (hCD45 staining), compared with liver",SU/SR cells [8],same results
same,hCD45 staining of bone marrow (human leukemia cells),SU/SR cells [8],filled with leukemia cells
